Assay: xn = mol fraction of the nth substance listed

COCCOCCOCCOC + CCOC(C)=O
viscosity [mPa·s], 101.3 kPa
Details | 298.15 K | 308.15 K | 318.15 K
x1 = 0.0071 | 0.436 | 0.391 | 0.358
x1 = 0.0233 | 0.454 | 0.406 | 0.369
x1 = 0.0549 | 0.488 | 0.434 | 0.395
x1 = 0.0836 | 0.522 | 0.464 | 0.417
x1 = 0.1198 | 0.564 | 0.498 | 0.447
x1 = 0.1684 | 0.626 | 0.548 | 0.489
x1 = 0.2665 | 0.752 | 0.651 | 0.574
x1 = 0.3217 | 0.833 | 0.717 | 0.624
x1 = 0.3905 | 0.931 | 0.796 | 0.69
x1 = 0.4265 | 0.985 | 0.841 | 0.725
x1 = 0.4683 | 1.058 | 0.895 | 0.769
x1 = 0.522 | 1.141 | 0.963 | 0.823
x1 = 0.5558 | 1.196 | 1.002 | 0.856
x1 = 0.6015 | 1.267 | 1.058 | 0.903
x1 = 0.6458 | 1.34 | 1.119 | 0.949
x1 = 0.725 | 1.479 | 1.223 | 1.028
x1 = 0.741 | 1.504 | 1.244 | 1.045
x1 = 0.7798 | 1.572 | 1.297 | 1.085
x1 = 0.8318 | 1.616 | 1.366 | 1.139
x1 = 0.8823 | 1.754 | 1.433 | 1.194
x1 = 0.9348 | 1.846 | 1.51 | 1.247
x1 = 0.9606 | 1.89 | 1.542 | 1.276

CC(C)(C)O + CN1CCCC1=O
298.15 K, 101 kPa
Details | viscosity [mPa·s]
x2 = 0.0522 | 4.027
x2 = 0.1107 | 3.478
x2 = 0.2046 | 2.892
x2 = 0.2528 | 2.676
x2 = 0.3034 | 2.494
x2 = 0.3557 | 2.342
x2 = 0.4023 | 2.234
x2 = 0.4562 | 2.13
x2 = 0.4773 | 2.095
x2 = 0.4998 | 2.064
x2 = 0.5605 | 1.981
x2 = 0.5966 | 1.942
x2 = 0.6533 | 1.885
x2 = 0.7046 | 1.842
x2 = 0.7461 | 1.809
x2 = 0.8029 | 1.775
x2 = 0.8498 | 1.745
x2 = 0.9007 | 1.719
x2 = 0.9581 | 1.688

CCC(O)CO (stereo not given) + CN1CCCC1=O
Details | viscosity [mPa·s]
298.15 K, 101.33 kPa, x2 = 0.0654 | 38.07
298.15 K, 101.33 kPa, x2 = 0.1029 | 31.55
298.15 K, 101.33 kPa, x2 = 0.2083 | 19.25
298.15 K, 101.33 kPa, x2 = 0.3075 | 12.65
298.15 K, 101.33 kPa, x2 = 0.3987 | 8.95
298.15 K, 101.33 kPa, x2 = 0.4992 | 6.384
298.15 K, 101.33 kPa, x2 = 0.5997 | 4.714
298.15 K, 101.33 kPa, x2 = 0.6958 | 3.61
298.15 K, 101.33 kPa, x2 = 0.8118 | 2.663
298.15 K, 101.33 kPa, x2 = 0.9111 | 2.083
298.15 K, 101.33 kPa, x2 = 0.9632 | 1.837
308.15 K, 101 kPa, x1 = 0.0282 | 1.835
308.15 K, 101 kPa, x1 = 0.0564 | 2.019
308.15 K, 101 kPa, x1 = 0.1026 | 2.039
308.15 K, 101 kPa, x1 = 0.1884 | 2.067
308.15 K, 101 kPa, x1 = 0.3027 | 3.253
308.15 K, 101 kPa, x1 = 0.4056 | 3.955
308.15 K, 101 kPa, x1 = 0.4941 | 4.933
308.15 K, 101 kPa, x1 = 0.6024 | 6.647
308.15 K, 101 kPa, x1 = 0.6843 | 8.612
308.15 K, 101 kPa, x1 = 0.7939 | 12.61
308.15 K, 101 kPa, x1 = 0.888 | 17.95
308.15 K, 101 kPa, x1 = 0.9396 | 22.95
308.15 K, 101 kPa, x1 = 0.9764 | 27.1
308.15 K, 101.33 kPa, x2 = 0.05493 | 22.04
308.15 K, 101.33 kPa, x2 = 0.1102 | 17.39
308.15 K, 101.33 kPa, x2 = 0.1762 | 13.32
308.15 K, 101.33 kPa, x2 = 0.2999 | 8.57
308.15 K, 101.33 kPa, x2 = 0.3972 | 6.231
308.15 K, 101.33 kPa, x2 = 0.4977 | 4.671
308.15 K, 101.33 kPa, x2 = 0.6026 | 3.551
308.15 K, 101.33 kPa, x2 = 0.6974 | 2.829
308.15 K, 101.33 kPa, x2 = 0.8019 | 2.225
308.15 K, 101.33 kPa, x2 = 0.9106 | 1.745
308.15 K, 101.33 kPa, x2 = 0.9521 | 1.595
318.15 K, 101.33 kPa, x2 = 0.05598 | 13.51
318.15 K, 101.33 kPa, x2 = 0.1062 | 11.16
318.15 K, 101.33 kPa, x2 = 0.2044 | 7.948
318.15 K, 101.33 kPa, x2 = 0.2997 | 5.996
318.15 K, 101.33 kPa, x2 = 0.4011 | 4.469
318.15 K, 101.33 kPa, x2 = 0.4992 | 3.505
318.15 K, 101.33 kPa, x2 = 0.6003 | 2.789
318.15 K, 101.33 kPa, x2 = 0.702 | 2.252
318.15 K, 101.33 kPa, x2 = 0.8041 | 1.83
318.15 K, 101.33 kPa, x2 = 0.9081 | 1.49
318.15 K, 101.33 kPa, x2 = 0.951 | 1.373

Nc1ccccc1 + CN1CCCC1=O
viscosity [mPa·s], 101 kPa
Details | x2 = 0.0954 | x2 = 0.1918 | x2 = 0.2892 | x2 = 0.3876 | x2 = 0.487 | x2 = 0.5875 | x2 = 0.689 | x2 = 0.7915 | x2 = 0.8952
303.15 K | 2.963 | 2.89 | 2.81 | 2.705 | 2.55 | 2.34 | 2.15 | 1.964 | 1.76
308.15 K | 2.57 | 2.51 | 2.445 | 2.34 | 2.187 | 2.035 | 1.875 | 1.736 | 1.571
313.15 K | 2.25 | 2.2 | 2.13 | 2.05 | 1.95 | 1.83 | 1.7 | 1.58 | 1.445
318.15 K | 1.99 | 1.94 | 1.89 | 1.825 | 1.735 | 1.623 | 1.52 | 1.417 | 1.309

C1COCCOCCOCCOCCO1 + CN(C)C=O
101 kPa
Details | viscosity [mPa·s]
293.15 K, x1 = 0.00344 | 0.8668
293.15 K, x1 = 0.0059 | 0.8771
293.15 K, x1 = 0.008679 | 0.8888
293.15 K, x1 = 0.01131 | 0.8997
293.15 K, x1 = 0.01335 | 0.9089
293.15 K, x1 = 0.01528 | 0.9166
298.15 K, x1 = 0.003438 | 0.8165
298.15 K, x1 = 0.006613 | 0.8287
298.15 K, x1 = 0.009181 | 0.8386
298.15 K, x1 = 0.01161 | 0.8485
298.15 K, x1 = 0.0137 | 0.8568
298.15 K, x1 = 0.01547 | 0.8639
303.15 K, x1 = 0.002196 | 0.7595
303.15 K, x1 = 0.004812 | 0.7687
303.15 K, x1 = 0.006882 | 0.7758
303.15 K, x1 = 0.008916 | 0.7832
303.15 K, x1 = 0.01094 | 0.7907
303.15 K, x1 = 0.01259 | 0.797
308.15 K, x1 = 0.003532 | 0.7213
308.15 K, x1 = 0.006367 | 0.7307
308.15 K, x1 = 0.008768 | 0.7387
308.15 K, x1 = 0.01108 | 0.7463
308.15 K, x1 = 0.01321 | 0.7538
308.15 K, x1 = 0.01506 | 0.7599

CCC(O)CO (stereo not given) + CN(C)C=O
308.15 K, 101 kPa
Details | viscosity [mPa·s]
x1 = 0.0519 | 0.748
x1 = 0.1008 | 0.855
x1 = 0.2013 | 1.113
x1 = 0.2983 | 1.444
x1 = 0.4099 | 2.065
x1 = 0.4883 | 2.645
x1 = 0.5694 | 3.576
x1 = 0.7139 | 7.387
x1 = 0.8896 | 16.22
x1 = 0.9489 | 21.9

Nc1ccccc1 + CN(C)C=O
viscosity [mPa·s], 101.33 kPa
Details | x2 = 0.1013 | x2 = 0.203 | x2 = 0.3061 | x2 = 0.4006 | x2 = 0.5013 | x2 = 0.6024 | x2 = 0.6967 | x2 = 0.8002 | x2 = 0.9059
303.15 K | 2.783 | 2.508 | 2.273 | 2.048 | 1.812 | 1.571 | 1.341 | 1.115 | 0.908
313.15 K | 2.131 | 1.957 | 1.793 | 1.64 | 1.474 | 1.3 | 1.135 | 0.96 | 0.801

COCCOCCOCCO + CN(CCO)CCO
viscosity [mPa·s], 101.33 kPa
Details | x2 = 0.1004 | x2 = 0.2133 | x2 = 0.2964 | x2 = 0.3993 | x2 = 0.4991 | x2 = 0.5993 | x2 = 0.7001 | x2 = 0.8006 | x2 = 0.9002
298.15 K | 6.741 | 8.012 | 9.103 | 10.85 | 13.35 | 17.08 | 22.81 | 31.15 | 50.17
313.15 K | 4.491 | 5.038 | 5.882 | 6.508 | 7.732 | 9.412 | 12.03 | 15.99 | 22.23
323.15 K | 3.445 | 3.861 | 4.307 | 4.93 | 5.674 | 6.845 | 8.383 | 10.78 | 14.36

CCNCC + CNC(C)=O
308.15 K, 101 kPa
Details | viscosity [mPa·s]
x2 = 0.0413 | 0.2729
x2 = 0.1815 | 0.4061
x2 = 0.3505 | 0.6727
x2 = 0.5056 | 1.02
x2 = 0.5776 | 1.254
x2 = 0.6715 | 1.563
x2 = 0.7881 | 2.064
x2 = 0.8957 | 2.614
x2 = 0.9724 | 3.097

COCCOCCOCCOC + CO
viscosity [mPa·s], 100 kPa
Details | 293.15 K | 298.15 K | 303.15 K
x2 = 0.0543 | 2.129 | 1.922 | 1.733
x2 = 0.0988 | 2.083 | 1.882 | 1.696
x2 = 0.1978 | 1.982 | 1.795 | 1.621
x2 = 0.3013 | 1.864 | 1.689 | 1.527
x2 = 0.3994 | 1.737 | 1.58 | 1.434
x2 = 0.5183 | 1.57 | 1.433 | 1.302
x2 = 0.5962 | 1.443 | 1.321 | 1.203
x2 = 0.6983 | 1.26 | 1.158 | 1.058
x2 = 0.7969 | 1.055 | 0.975 | 0.894
x2 = 0.8472 | 0.944 | 0.875 | 0.804
x2 = 0.8993 | 0.825 | 0.767 | 0.705
x2 = 0.9489 | 0.711 | 0.662 | 0.608

C[NH+](CCO)CCO.O=C[O-] + CO
viscosity [mPa·s], 101 kPa
Details | 293.15 K | 303.15 K | 313.15 K | 323.15 K
x1 = 0.0524 | 26.47 | 15.39 | 6.822 | 4.667
x1 = 0.1066 | 52.08 | 24.58 | 13.12 | 8.99
x1 = 0.2075 | 103.1 | 49.04 | 26.16 | 17.87
x1 = 0.3137 | 158.6 | 77.7 | 40.82 | 27.89
x1 = 0.4061 | 207.6 | 102 | 54.12 | 37.05
x1 = 0.5016 | 259.6 | 126.3 | 68.64 | 47.08
x1 = 0.6339 | 339 | 163 | 91.65 | 62.82
x1 = 0.7031 | 388.3 | 187.2 | 106.1 | 72.5
x1 = 0.8195 | 494.6 | 243.3 | 136.4 | 92.04
x1 = 0.9184 | 618.8 | 307.1 | 167.4 | 111.1
x1 = 0.962 | 667.2 | 330.3 | 179.6 | 118.9
